Data published in patent US12410166B2, “Sulfonylamidine substituted compounds and their use as beta-lactamase inhibitors” (NINGXIA ACADEMY OF AGRICULTURE AND FORESTRY SCIENCES, priority 2021, dated 2025).
Counter-ions that a name gives are not always drawn. Like-named read-outs stand apart in the source and are kept apart here.

Key:
Experiment in all cases: MIC by broth microdilution (antibacterial and synergistic activity)
Type in all cases: cell-based
[1] = tested on: A. baumannii 19606 (strain 8, OXA-24); conditions: for MIC: Acinetobacter baumannii
Protocol: (§1) Compounds of the present invention alone, avibactam (AVI) alone, relebactam (REL) alone, meropenem (MER) alone, imipenem (IMI) alone, and as a combination of compounds of the present invention, or avibactam or relebactam with test antibiotic (meropenem or imipenem) was tested for antimicrobial activity by determining minimum inhibitory concentration (MIC, mg/L) using the broth microdilution method according to the guidelines of the Clinical Laboratories and Standards Institute (“Methods for Dilution Antimicrobial Susceptibility Tests for Bacterial that Grow Aerobically”, Approved standard, 7th ed., Clinical and Laboratories Standards Institute (CLSI) Document M7-A8, Wayne, Pa., USA, 2009). Meropenem or imipenem as a test antibiotic compound was dissolved in DMSO, and then diluted in microbial growth medium (Mueller-Hinton Broth II, cation adjusted) resulting in a final concentration range of 0.031-64 mg/L in serial two-fold dilution. In all cases the final DMSO concentration was less than 0.5%. Bacteria were added to 96-well microtitre plates containing the serial two-fold dilutions of the compounds; the final cell density was approximately 5×10^5 colony forming units/mL (CFU/mL). Plates were incubated at 37° C. for 18-24 hours and read visually. The MIC, i.e. the lowest concentration of the test compound that inhibited visible growth of the bacteria, was recorded. The same assay conditions were used when the compounds of present invention alone, avibactam or relebactam alone (as a control), and as a combination of the present invention each compound, or avibactam or relebactam with test meropenem or imipenem antibiotic compound was tested for minimum inhibitory concentration (MIC, mg/L). While test meropenem or imipenem was serially diluted as described above, a constant concentration of avibactam, or relebactam or the present invention each compound of 4 mg/L was used.
(§2) Bacterial strains that were used to evaluate the antimicrobial activity using the MIC determination included but were not limited to E. coli clinical isolate (strain 1, TEM-1), E. coli 8739 (strain 2, CTX-M15), K. pneumoniae clinical isolate (strain 3, SHV-1), K. pneumoniae 700603 (strain 4, KPC-3, TEM-1), E. cloacae clinical isolate (strain 5, P99), E. cloacae 700323 (strain 6, AmpC), A. baumannii clinical isolate (strain 7, OXA-23, OXA-40), A. baumannii 19606 (strain 8, OXA-24), P. aeruginosa clinical isolate (strain 9, KPC-2), P. aeruginosa 9027 (strain 10, AmpC).

[2] = tested on: E. cloacae 700323 (strain 6, AmpC); conditions: for MIC: Enterobacter cloacae
Protocol: as §1, §2

[3] = tested on: P. aeruginosa clinical isolate (strain 9, KPC-2); conditions: for MIC: Pseudomonas aeruginosa
Protocol: as §1, §2

[4] = tested on: A. baumannii clinical isolate (strain 7, OXA-23, OXA-40); conditions: for MIC: Acinetobacter baumannii
Protocol: as §1, §2

[5] = tested on: E. coli clinical isolate (strain 1, TEM-1); conditions: for MIC: Escherichia coli
Protocol: as §1, §2

[6] = tested on: K. pneumoniae clinical isolate (strain 3, SHV-1); conditions: for MIC: Klebsiella pneumoniae
Protocol: as §1, §2

[7] = tested on: P. aeruginosa 9027 (strain 10, AmpC); conditions: for MIC: Pseudomonas aeruginosa
Protocol: as §1, §2

[8] = tested on: K. pneumoniae 700603 (strain 4, KPC-3, TEM-1); conditions: for MIC: Klebsiella pneumoniae
Protocol: as §1, §2

[9] = tested on: E. cloacae clinical isolate (strain 5, P99); conditions: for MIC: Enterobacter cloacae
Protocol: as §1, §2

[10] = tested on: E. coli 8739 (strain 2, CTX-M15); conditions: Escherichia coli, read-out: Antibacterial activity, MIC, inhibitor Alone
Protocol: as §1, §2

[11] = read-out: Antibacterial activity, MIC, inhibitor Alone
[12] = strain 6 (AmpC), compound alone, no antibiotic, read-out: Antibacterial activity, MIC, inhibitor Alone
[13] = strain 9 (KPC-2), compound alone, no antibiotic, read-out: Antibacterial activity, MIC, inhibitor Alone
[14] = strain 7 (OXA-23/40), compound alone, no antibiotic, read-out: Antibacterial activity, MIC, inhibitor Alone
[15] = strain 1 (TEM-1), compound alone, no antibiotic, read-out: Antibacterial activity, MIC, inhibitor Alone
[16] = strain 3 (SHV-1), compound alone, no antibiotic, read-out: Antibacterial activity, MIC, inhibitor Alone
[17] = strain 10 (AmpC), compound alone, no antibiotic, read-out: Antibacterial activity, MIC, inhibitor Alone
[18] = strain 4 (KPC-3, TEM-1), compound alone, no antibiotic, read-out: Antibacterial activity, MIC, inhibitor Alone
[19] = strain 5 (P99), compound alone, no antibiotic, read-out: Antibacterial activity, MIC, inhibitor Alone
[20] = strain 6 (AmpC), inhibitor at constant 4 mg/L
[21] = strain 9 (KPC-2), inhibitor at constant 4 mg/L
[22] = strain 7 (OXA-23/40), inhibitor at constant 4 mg/L
[23] = strain 1 (TEM-1), inhibitor at constant 4 mg/L
[24] = strain 3 (SHV-1), inhibitor at constant 4 mg/L
[25] = strain 10 (AmpC), inhibitor at constant 4 mg/L
[26] = strain 4 (KPC-3, TEM-1), inhibitor at constant 4 mg/L
[27] = strain 5 (P99), inhibitor at constant 4 mg/L

SMILES | MIC [1, 11] | MIC [2, 12] | MIC [3, 13] | MIC [4, 14] | MIC [5, 15] | MIC [6, 16] | MIC [7, 17] | MIC [8, 18] | MIC [10] | MIC [9, 19] | further results
C[C@@H](O)[C@H]1C(=O)N2C(C(=O)O)=C(SCCN=CN)C[C@H]12 [IMI, imipenem, reference compound] | – | – | – | – | – | – | – | – | – | – | MIC ([1]; read-out: MIC, IMI Alone): 2 µg/mL; MIC ([2]; strain 6 (AmpC), imipenem alone, read-out: MIC, IMI Alone): 0.5 µg/mL; MIC ([3]; strain 9 (KPC-2), imipenem alone, read-out: MIC, IMI Alone): 2 µg/mL; MIC ([4]; strain 7 (OXA-23/40), imipenem alone, read-out: MIC, IMI Alone): 0.5 µg/mL; MIC ([5]; strain 1 (TEM-1), imipenem alone, read-out: MIC, IMI Alone): 0.5 µg/mL; MIC ([6]; strain 3 (SHV-1), imipenem alone, read-out: MIC, IMI Alone): 2 µg/mL; MIC ([7]; strain 10 (AmpC), imipenem alone, read-out: MIC, IMI Alone): 4 µg/mL; MIC ([8]; strain 4 (KPC-3, TEM-1), imipenem alone, read-out: MIC, IMI Alone): 4 µg/mL; MIC ([9]; strain 5 (P99), imipenem alone, read-out: MIC, IMI Alone): 4 µg/mL
N=C(NS(=O)(=O)c1ccc(F)cn1)[C@@H]1CC[C@@H]2CN1C(=O)N2OS(=O)(=O)O [Ex. 23, (2S,5R)-2-(N-((5-fluoropyridin-2-yl)sulfonyl)carbamimidoyl)-7-oxo-1,6-diazabicyclo[3.2.1]octan-6-yl hydrogen sulfate] | > 64 µg/mL | > 64 µg/mL | > 64 µg/mL | > 64 µg/mL | > 64 µg/mL | > 64 µg/mL | > 64 µg/mL | > 64 µg/mL | > 64 µg/mL | > 64 µg/mL | –
N=C(NS(=O)(=O)C(F)(F)F)[C@@H]1CC[C@@H]2CN1C(=O)N2OS(=O)(=O)O [Ex. 14, (2S,5R)-7-oxo-2-(N-((trifluoromethyl)sulfonyl)carbamimidoyl)-1,6-diazabicyclo[3.2.1]octan-6-yl hydrogen sulfate] | > 64 µg/mL | > 64 µg/mL | > 64 µg/mL | > 64 µg/mL | > 64 µg/mL | > 64 µg/mL | > 64 µg/mL | > 64 µg/mL | > 64 µg/mL | > 64 µg/mL | –
COc1ccc(S(=O)(=O)NC(=N)[C@@H]2CC[C@@H]3CN2C(=O)N3OS(=O)(=O)O)nc1 [Ex. 22, (2S,5R)-2-(N-((5-methoxypyridin-2-yl)sulfonyl)carbamimidoyl)-7-oxo-1,6-diazabicyclo[3.2.1]octan-6-yl hydrogen sulfate] | > 64 µg/mL | > 64 µg/mL | > 64 µg/mL | > 64 µg/mL | > 64 µg/mL | > 64 µg/mL | > 64 µg/mL | > 64 µg/mL | > 64 µg/mL | > 64 µg/mL | –
CNS(=O)(=O)NC(=N)[C@@H]1CC[C@@H]2CN1C(=O)N2OS(=O)(=O)O [Ex. 17, (2S,5R)-2-(N—(N-Methylsulfamoyl)carbamimidoyl)-7-oxo-1,6-diazabicyclo[3.2.1]octan-6-yl hydrogen sulfate] | > 64 µg/mL | – | – | – | – | – | – | – | > 64 µg/mL | – | MIC [2, 11]: > 64 µg/mL; MIC [3, 11]: > 64 µg/mL; MIC [4, 11]: > 64 µg/mL; MIC [5, 11]: > 64 µg/mL; MIC [6, 11]: > 64 µg/mL; MIC [7, 11]: > 64 µg/mL; MIC [8, 11]: > 64 µg/mL; MIC [9, 11]: > 64 µg/mL
C[C@@H](O)[C@H]1C(=O)N2C(C(=O)O)=C(S[C@@H]3CN[C@H](C(=O)N(C)C)C3)[C@H](C)[C@H]12 [MER, meropenem, reference compound] | – | – | – | – | – | – | – | – | – | – | MIC ([1]; read-out: MIC, MER Alone): 2 µg/mL; MIC ([2]; strain 6 (AmpC), meropenem alone, read-out: MIC, MER Alone): 4 µg/mL; MIC ([3]; strain 9 (KPC-2), meropenem alone, read-out: MIC, MER Alone): 4 µg/mL; MIC ([4]; strain 7 (OXA-23/40), meropenem alone, read-out: MIC, MER Alone): 4 µg/mL; MIC ([5]; strain 1 (TEM-1), meropenem alone, read-out: MIC, MER Alone): 4 µg/mL; MIC ([6]; strain 3 (SHV-1), meropenem alone, read-out: MIC, MER Alone): 4 µg/mL; MIC ([7]; strain 10 (AmpC), meropenem alone, read-out: MIC, MER Alone): 4 µg/mL; MIC ([8]; strain 4 (KPC-3, TEM-1), meropenem alone, read-out: MIC, MER Alone): 2 µg/mL; MIC ([9]; strain 5 (P99), meropenem alone, read-out: MIC, MER Alone): 4 µg/mL
COC(=O)CS(=O)(=O)NC(=N)[C@@H]1CC[C@@H]2CN1C(=O)N2OS(=O)(=O)[O-].[Na+] [Ex. 2, Sodium (2S,5R)-2-(N-((2-methoxy-2-oxoethyl)sulfonyl)caramimidoyl)-7-oxo-1,6-diazabicyclo[3.2.1]octan-6-yl sulfate] | – | – | – | – | – | – | – | – | – | – | MIC of meropenem in combination with the inhibitor (MER + inhibitor) ([1]; strain 8 (OXA-24), inhibitor at constant 4 mg/L): 0.5 µg/mL; MIC of imipenem in combination with the inhibitor (IMI + inhibitor) [2, 20]: 0.5 µg/mL; MIC of meropenem in combination with the inhibitor (MER + inhibitor) [2, 20]: <0.125 µg/mL; MIC of imipenem in combination with the inhibitor (IMI + inhibitor) [3, 21]: 1.0 µg/mL; MIC of meropenem in combination with the inhibitor (MER + inhibitor) [3, 21]: 0.125 µg/mL; MIC of imipenem in combination with the inhibitor (IMI + inhibitor) [4, 22]: 0.25 µg/mL; MIC of meropenem in combination with the inhibitor (MER + inhibitor) [4, 22]: <0.125 µg/mL; MIC of imipenem in combination with the inhibitor (IMI + inhibitor) [5, 23]: <0.125 µg/mL; MIC of meropenem in combination with the inhibitor (MER + inhibitor) [5, 23]: <0.125 µg/mL; MIC of imipenem in combination with the inhibitor (IMI + inhibitor) [6, 24]: 0.25 µg/mL; MIC of meropenem in combination with the inhibitor (MER + inhibitor) [6, 24]: 0.125 µg/mL; MIC of imipenem in combination with the inhibitor (IMI + inhibitor) [7, 25]: 1.0 µg/mL; MIC of meropenem in combination with the inhibitor (MER + inhibitor) [7, 25]: <0.125 µg/mL; MIC of imipenem in combination with the inhibitor (IMI + inhibitor) [8, 26]: <0.125 µg/mL; MIC of meropenem in combination with the inhibitor (MER + inhibitor) [8, 26]: <0.125 µg/mL; MIC of imipenem in combination with the inhibitor (IMI + inhibitor) [9, 27]: <0.125 µg/mL; MIC of meropenem in combination with the inhibitor (MER + inhibitor) [9, 27]: <0.125 µg/mL
N=C(NS(=O)(=O)N1CCC1)[C@@H]1CC[C@@H]2CN1C(=O)N2OS(=O)(=O)O [Ex. 15, (2S,5R)-2-(N-(azetidin-1-ylsulfonyl)carbamimidoyl)-7-oxo-1,6-diazabicyclo[3.2.1]octan-6-yl hydrogen sulfate] | > 64 µg/mL | – | – | – | – | – | – | – | > 64 µg/mL | – | MIC [2, 11]: > 64 µg/mL; MIC [3, 11]: > 64 µg/mL; MIC [4, 11]: > 64 µg/mL; MIC [5, 11]: > 64 µg/mL; MIC [6, 11]: > 64 µg/mL; MIC [7, 11]: > 64 µg/mL; MIC [8, 11]: > 64 µg/mL; MIC [9, 11]: > 64 µg/mL
NC(=O)[C@@H]1CC[C@@H]2CN1C(=O)N2OS(=O)(=O)O [AVI, avibactam, reference compound] | > 64 µg/mL | > 64 µg/mL | > 64 µg/mL | > 64 µg/mL | > 64 µg/mL | > 64 µg/mL | > 64 µg/mL | > 64 µg/mL | > 64 µg/mL | > 64 µg/mL | –
Cn1cnc(S(=O)(=O)NC(=N)[C@@H]2CC[C@@H]3CN2C(=O)N3OS(=O)(=O)[O-])c1.[Na+] [Ex. 7, Sodium (2S,5R)-2-(N-((1-methyl-1H-imidazol-4-yl)sulfonyl)carbamimidoyl)-7-oxo-1,6-diazabicyclo[3.2.1]octan-6-yl sulfate] | > 64 µg/mL | > 64 µg/mL | – | > 64 µg/mL | > 64 µg/mL | > 64 µg/mL | > 64 µg/mL | > 64 µg/mL | > 64 µg/mL | > 64 µg/mL | –
